Assay results taken from PubChem BioAssay AID1963965 (Molecular Pharmacology Branch, DTP, NCI, 2024).
Several values for one entry are separate records, joined by “and”; a condition that tells them apart may be missing. Equal entries are not always repeated. One block for each compound: values may come before it.

System: 996289-038-R-J1-PDC spheroid viability
Assay: Anticancer human tumor 996289-038-R-J1-PDC patient-derived colon adenocarcinoma cell line growth inhibition [PI3K]
Settings: spheroids with HUVEC and MSC; for viability, T/C: stronger effect = lower value
Summary of the method: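 Viability of mixed-cell spheroids was determined after exposure to pairwise combinations, one partner being inavolisib, alpelisib, duvelisib or copanlisib. Highest tested concentration matched clinical Cmax where known and 10 microM where not, descending in half-log steps.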

[1] = curve of first compound, second compound 0.0316 µM
[2] = curve of first compound, second compound 0.1 µM
[3] = curve of first compound, second compound 0.316 µM
[4] = curve of first compound, second compound 1 µM
[5] = second compound 0.0316 µM, first compound 0.0316 µM
[6] = second compound 0.0316 µM, first compound 0.1 µM
[7] = second compound 0.1 µM, first compound 0.0316 µM
[8] = second compound 0.1 µM, first compound 0.1 µM
[9] = second compound 0.316 µM, first compound 0.0316 µM
[10] = second compound 0.316 µM, first compound 0.1 µM
[11] = second compound 1 µM, first compound 0.0316 µM
[12] = second compound 1 µM, first compound 0.1 µM
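Note: spheroids exposed to compounds for seven days before viability read.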
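Throughout, for viability, T/C: luminescence used as a proxy for viable cell amount; percent viability relative to DMSO vehicle control as 100%.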

SMILES: C#Cc1c(F)ccc2cc(O)cc(-c3ncc4c(N5CC6CCC(C5)N6)nc(OCC56CCCN5CC(F)C6)nc4c3F)c12 (stereo not given)
- viability, T/C (compound 0.0316 µM): 90.4% [middle of 4 runs]
- viability, T/C (compound 0.1 µM): 83.8% [middle of 4 runs]
- viability, T/C (compound 0.316 µM): 70.2% [middle of 4 runs]
- viability, T/C (compound 1 µM): 52.4% [middle of 4 runs]
- viability, T/C (compound 3.16 µM): 44.8% [middle of 4 runs]
- viability, T/C (compound 10 µM): 37.7% [middle of 4 runs]
- IC50 (curve of compound): 1.79 µM [middle of 4 runs]

SMILES: C[C@@H](NC(=O)c1ncnc(N)c1Cl)c1ncc(C(=O)Nc2cc(C(F)(F)F)c(Cl)cn2)s1
- viability, T/C (compound 0.0316 µM): 110% [middle of 4 runs]
- viability, T/C (compound 0.1 µM): 103% [middle of 4 runs]
- viability, T/C (compound 0.316 µM): 110% (2×) and 119% and 115%
- viability, T/C (compound 1 µM): 114% [middle of 4 runs]
- viability, T/C (compound 10 µM): 131% [middle of 4 runs]
- IC50 (curve of compound): > 10 µM

SMILES: CC(C)NCC(C(=O)N1CCN(c2ncnc3c2C(C)CC3O)CC1)c1ccc(Cl)cc1 (stereo not given)
- viability, T/C (compound 0.0316 µM): 106% [middle of 4 runs]
- viability, T/C (compound 0.1 µM): 86.8% [middle of 4 runs]
- viability, T/C (compound 0.316 µM): 99.8% [middle of 4 runs]
- viability, T/C (compound 1 µM): 94.2% [middle of 4 runs]
- viability, T/C (compound 3.16 µM): 88% [middle of 4 runs]
- viability, T/C (compound 10 µM): 78.7% [middle of 4 runs]
- IC50 (curve of compound): > 10 µM

Now from value to compound, other results behind:

- IC50 [1]: > 0.1 µM
- IC50 [2]: > 0.1 µM
- IC50 [3]: > 0.1 µM
- IC50 [4]: > 0.1 µM
- IC50 (curve of first compound, second compound 3.16 µM): > 0.1 µM
- IC50 (curve of first compound, second compound 10 µM): < 0.000316 µM
SMILES: Cn1ncnc1[C@H]1c2n[nH]c(=O)c3cc(F)cc(c23)N[C@@H]1c1ccc(F)cc1 + Cc1nc(NC(=O)N2CCCC2C(N)=O)sc1-c1ccnc(C(C)(C)C(F)(F)F)c1
- viability, T/C (second compound 0.0316 µM, first compound 0.000316 µM): 120%
- viability, T/C (second compound 0.0316 µM, first compound 0.001 µM): 117%
- viability, T/C (second compound 0.0316 µM, first compound 0.00316 µM): 97.9%
- viability, T/C (second compound 0.0316 µM, first compound 0.01 µM): 90.3%
- viability, T/C [5]: 99.9%
- viability, T/C [6]: 99%
- viability, T/C (second compound 0.1 µM, first compound 0.000316 µM): 113%
- viability, T/C (second compound 0.1 µM, first compound 0.001 µM): 101%
- viability, T/C (second compound 0.1 µM, first compound 0.00316 µM): 79.5%
- viability, T/C (second compound 0.1 µM, first compound 0.01 µM): 84.9%
- viability, T/C [7]: 91.2%
- viability, T/C [8]: 83.2%
- viability, T/C (second compound 0.316 µM, first compound 0.000316 µM): 88.3%
- viability, T/C (second compound 0.316 µM, first compound 0.001 µM): 85%
- viability, T/C (second compound 0.316 µM, first compound 0.00316 µM): 84.1%
- viability, T/C (second compound 0.316 µM, first compound 0.01 µM): 89.8%
- viability, T/C [9]: 90.8%
- viability, T/C [10]: 77.3%
- viability, T/C (second compound 1 µM, first compound 0.000316 µM): 76.6%
- viability, T/C (second compound 1 µM, first compound 0.001 µM): 70.9%
- viability, T/C (second compound 1 µM, first compound 0.00316 µM): 78.5%
- viability, T/C (second compound 1 µM, first compound 0.01 µM): 77.9%
- viability, T/C [11]: 76.7%
- viability, T/C [12]: 68.3%
- viability, T/C (second compound 3.16 µM, first compound 0.000316 µM): 53.7%
- viability, T/C (second compound 3.16 µM, first compound 0.001 µM): 69.4%
- viability, T/C (second compound 3.16 µM, first compound 0.00316 µM): 64%
- viability, T/C (second compound 3.16 µM, first compound 0.01 µM): 61.1%
- viability, T/C (second compound 3.16 µM, first compound 0.0316 µM): 62%
- viability, T/C (second compound 3.16 µM, first compound 0.1 µM): 58.4%
- viability, T/C (second compound 10 µM, first compound 0.000316 µM): 42.5%
- viability, T/C (second compound 10 µM, first compound 0.001 µM): 51.5%
- viability, T/C (second compound 10 µM, first compound 0.00316 µM): 49.5%
- viability, T/C (second compound 10 µM, first compound 0.01 µM): 44.2%
- viability, T/C (second compound 10 µM, first compound 0.0316 µM): 55.1%
- viability, T/C (second compound 10 µM, first compound 0.1 µM): 40.8%

- IC50 (curve of first compound, second compound 0.00316 µM): > 10 µM
- IC50 (curve of first compound, second compound 0.01 µM): > 10 µM
- IC50 [1]: 9.77 µM
- IC50 [2]: 9.01 µM
- IC50 [3]: 4.82 µM
- IC50 [4]: 2.25 µM
SMILES: Cn1nccc1Nc1nccc(-c2ccn(C(CO)c3ccc(Cl)c(F)c3)c(=O)c2)n1 (stereo not given) + CC(Nc1ccc2c(c1)OCCn1cc(N3C(=O)OCC3C(F)F)nc1-2)C(N)=O
- viability, T/C (second compound 0.00316 µM, first compound 0.0316 µM): 104%
- viability, T/C (second compound 0.00316 µM, first compound 0.1 µM): 98%
- viability, T/C (second compound 0.00316 µM, first compound 0.316 µM): 117%
- viability, T/C (second compound 0.00316 µM, first compound 1 µM): 106%
- viability, T/C (second compound 0.00316 µM, first compound 3.16 µM): 94.4%
- viability, T/C (second compound 0.00316 µM, first compound 10 µM): 58.4%
- viability, T/C (second compound 0.01 µM, first compound 0.0316 µM): 104%
- viability, T/C (second compound 0.01 µM, first compound 0.1 µM): 95.3%
- viability, T/C (second compound 0.01 µM, first compound 0.316 µM): 105%
- viability, T/C (second compound 0.01 µM, first compound 1 µM): 103%
- viability, T/C (second compound 0.01 µM, first compound 3.16 µM): 70.8%
- viability, T/C (second compound 0.01 µM, first compound 10 µM): 53.4%
- viability, T/C [5]: 98.9%
- viability, T/C [6]: 110%
- viability, T/C (second compound 0.0316 µM, first compound 0.316 µM): 86.8%
- viability, T/C (second compound 0.0316 µM, first compound 1 µM): 93.6%
- viability, T/C (second compound 0.0316 µM, first compound 3.16 µM): 67.8%
- viability, T/C (second compound 0.0316 µM, first compound 10 µM): 50%
- viability, T/C [7]: 87.9%
- viability, T/C [8]: 89.6%
- viability, T/C (second compound 0.1 µM, first compound 0.316 µM): 97.2%
- viability, T/C (second compound 0.1 µM, first compound 1 µM): 81%
- viability, T/C (second compound 0.1 µM, first compound 3.16 µM): 78.7%
- viability, T/C (second compound 0.1 µM, first compound 10 µM): 46.8%
- viability, T/C [9]: 79.5%
- viability, T/C [10]: 74.5%
- viability, T/C (second compound 0.316 µM, first compound 0.316 µM): 61.4%
- viability, T/C (second compound 0.316 µM, first compound 1 µM): 67.6%
- viability, T/C (second compound 0.316 µM, first compound 3.16 µM): 58.2%
- viability, T/C (second compound 0.316 µM, first compound 10 µM): 39.5%
- viability, T/C [11]: 56.2%
- viability, T/C [12]: 64.4%
- viability, T/C (second compound 1 µM, first compound 0.316 µM): 53.7%
- viability, T/C (second compound 1 µM, first compound 1 µM): 73.3%
- viability, T/C (second compound 1 µM, first compound 3.16 µM): 45%
- viability, T/C (second compound 1 µM, first compound 10 µM): 30.2%

- IC50 (curve of compound): > 10 µM
SMILES: C=CC(=O)N1CCN(c2nc(=O)n(-c3c(C)ccnc3C(C)C)c3nc(-c4c(O)cccc4F)c(F)cc23)C(C)C1 (stereo not given)
- viability, T/C (compound 0.0316 µM): 99.2% [middle of 4 runs]
- viability, T/C (compound 0.1 µM): 97.6% [middle of 4 runs]
- viability, T/C (compound 1 µM): 106% [middle of 4 runs]
- viability, T/C (compound 3.16 µM): 117% [middle of 4 runs]
- viability, T/C (compound 10 µM): 111% [middle of 4 runs]
